According to PubChem BioAssay (NCI):
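Grown in 96-well plates, cells were treated for 48 hours with each compound at five concentrations. Insufficient inhibition: endpoint recorded as highest concentration tested. At the GI50, growth is halved. TGI: concentration producing complete growth inhibition.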

Assays:
Experiment in all cases: NCI anticancer screen, dose series, 48 h
786-0 renal = system: 786-0 renal
A498 renal = system: A498 renal
A549 NSCLC = system: A549 NSCLC
ACHN renal = system: ACHN renal
BT-549 breast = system: BT-549 breast
CAKI-1 renal = system: CAKI-1 renal
CCRF-CEM leukemia = system: CCRF-CEM leukemia
COLO 205 colon = system: COLO 205 colon
DU-145 prostate = system: DU-145 prostate
EKVX NSCLC = system: EKVX NSCLC
HCC-2998 colon = system: HCC-2998 colon
HCT-116 colon = system: HCT-116 colon
HCT-15 colon = system: HCT-15 colon
HL-60(TB) leukemia = system: HL-60(TB) leukemia
HOP-62 NSCLC = system: HOP-62 NSCLC
HOP-92 NSCLC = system: HOP-92 NSCLC
HS 578T breast = system: HS 578T breast
HT29 colon = system: HT29 colon
IGROV1 ovarian = system: IGROV1 ovarian
K-562 leukemia = system: K-562 leukemia
KM12 colon = system: KM12 colon
LOX IMVI melanoma = system: LOX IMVI melanoma
M14 melanoma = system: M14 melanoma
MALME-3M melanoma = system: MALME-3M melanoma
MCF7 breast = system: MCF7 breast
MDA-MB-231 breast = system: MDA-MB-231 breast
MDA-MB-435 = system: MDA-MB-435
MOLT-4 leukemia = system: MOLT-4 leukemia
NCI-H226 lung = system: NCI-H226 lung
NCI-H23 lung = system: NCI-H23 lung
NCI-H460 lung = system: NCI-H460 lung
NCI-H522 lung = system: NCI-H522 lung
NCI/ADR-RES ovarian = system: NCI/ADR-RES ovarian
OVCAR-3 ovarian = system: OVCAR-3 ovarian
OVCAR-4 ovarian = system: OVCAR-4 ovarian
OVCAR-5 ovarian = system: OVCAR-5 ovarian
OVCAR-8 ovarian = system: OVCAR-8 ovarian
PC-3 prostate = system: PC-3 prostate
RPMI-8226 leukemia = system: RPMI-8226 leukemia
RXF 393 renal = system: RXF 393 renal
SF-268 CNS = system: SF-268 CNS
SF-295 CNS = system: SF-295 CNS
SF-539 CNS = system: SF-539 CNS
SK-MEL-2 melanoma = system: SK-MEL-2 melanoma
SK-MEL-28 melanoma = system: SK-MEL-28 melanoma
SK-MEL-5 melanoma = system: SK-MEL-5 melanoma
SK-OV-3 ovarian = system: SK-OV-3 ovarian
SN12C renal = system: SN12C renal
SNB-19 CNS = system: SNB-19 CNS
SNB-75 CNS = system: SNB-75 CNS
SR leukemia = system: SR leukemia
SW-620 colon = system: SW-620 colon
T-47D breast = system: T-47D breast
TK-10 renal = system: TK-10 renal
U251 CNS = system: U251 CNS
UACC-257 melanoma = system: UACC-257 melanoma
UACC-62 melanoma = system: UACC-62 melanoma
UO-31 renal = system: UO-31 renal

`c1ccc(-c2nc(-c3ccccn3)nc(-c3ccccn3)n2)nc1` was tested, and the GI50 (786-0 renal) was 61.5 µM, the TGI (786-0 renal) was greater than 100 µM and the GI50 (A498 renal) was 86.9 µM. The TGI (A498 renal) was greater than 100 µM, the GI50 (A549 NSCLC) was 47.9 µM and the TGI (A549 NSCLC) was greater than 100 µM. The GI50 (ACHN renal) was 22.1 µM, the TGI (ACHN renal) was greater than 100 µM and the GI50 (BT-549 breast) was 44.6 µM. It also gave a TGI (BT-549 breast) greater than 100 µM, a GI50 (CAKI-1 renal) of 3.88 µM and a TGI (CAKI-1 renal) of 34.3 µM. For the same compound, the GI50 (CCRF-CEM leukemia) was 14.4 µM, the TGI (CCRF-CEM leukemia) was greater than 100 µM and the GI50 (COLO 205 colon) was 45.7 µM. It also gave a TGI (COLO 205 colon) greater than 100 µM, a GI50 (DU-145 prostate) of 48.9 µM and a TGI (DU-145 prostate) greater than 100 µM. For the same compound, the GI50 (EKVX NSCLC) was 17 µM, the TGI (EKVX NSCLC) was greater than 100 µM and the GI50 (HCC-2998 colon) was 75.5 µM. It also gave a TGI (HCC-2998 colon) greater than 100 µM, a GI50 (HCT-116 colon) of 19.4 µM and a TGI (HCT-116 colon) of 78.6 µM. For the same compound, the GI50 (HCT-15 colon) was 5.71 µM, the TGI (HCT-15 colon) was greater than 100 µM and the GI50 (HL-60(TB) leukemia) was 38.2 µM. It also gave a TGI (HL-60(TB) leukemia) greater than 100 µM, a GI50 (HOP-62 NSCLC) of 30.4 µM and a TGI (HOP-62 NSCLC) greater than 100 µM. The GI50 (HOP-92 NSCLC) was 8.99 µM, the TGI (HOP-92 NSCLC) was 92 µM and the GI50 (HS 578T breast) was 53.6 µM. The TGI (HS 578T breast) was greater than 100 µM, the GI50 (HT29 colon) was 6.73 µM and the TGI (HT29 colon) was greater than 100 µM. For the same compound, the GI50 (IGROV1 ovarian) was 15.8 µM, the TGI (IGROV1 ovarian) was 55.2 µM and the GI50 (K-562 leukemia) was 19.4 µM. The TGI (K-562 leukemia) was greater than 100 µM, the GI50 (KM12 colon) was 32.4 µM and the TGI (KM12 colon) was greater than 100 µM. It also gave a GI50 (LOX IMVI melanoma) of 33.5 µM, a TGI (LOX IMVI melanoma) greater than 100 µM and a GI50 (M14 melanoma) of 31.4 µM. It also gave a TGI (M14 melanoma) greater than 100 µM, a GI50 (MALME-3M melanoma) of 35.3 µM and a TGI (MALME-3M melanoma) greater than 100 µM. It also gave a GI50 (MCF7 breast) of 29.6 µM, a TGI (MCF7 breast) greater than 100 µM and a GI50 (MDA-MB-231 breast) of 32.6 µM. For the same compound, the TGI (MDA-MB-231 breast) was greater than 100 µM, the GI50 (MDA-MB-435) was 41.3 µM and the TGI (MDA-MB-435) was greater than 100 µM. The GI50 (MOLT-4 leukemia) was 21.2 µM, the TGI (MOLT-4 leukemia) was greater than 100 µM and the GI50 (NCI-H226 lung) was 44.9 µM. The TGI (NCI-H226 lung) was greater than 100 µM, the GI50 (NCI-H23 lung) was 54.9 µM and the TGI (NCI-H23 lung) was greater than 100 µM. For the same compound, the GI50 (NCI-H460 lung) was 12.1 µM, the TGI (NCI-H460 lung) was greater than 100 µM and the GI50 (NCI-H522 lung) was 21.6 µM. The TGI (NCI-H522 lung) was 81.8 µM, the GI50 (NCI/ADR-RES ovarian) was 6.37 µM and the TGI (NCI/ADR-RES ovarian) was greater than 100 µM. It also gave a GI50 (OVCAR-3 ovarian) of 25.4 µM, a TGI (OVCAR-3 ovarian) greater than 100 µM and a GI50 (OVCAR-4 ovarian) of 18.6 µM. It also gave a TGI (OVCAR-4 ovarian) greater than 100 µM, a GI50 (OVCAR-5 ovarian) greater than 100 µM and a TGI (OVCAR-5 ovarian) greater than 100 µM. For the same compound, the GI50 (OVCAR-8 ovarian) was 21.3 µM, the TGI (OVCAR-8 ovarian) was greater than 100 µM and the GI50 (PC-3 prostate) was 48.1 µM. It also gave a TGI (PC-3 prostate) greater than 100 µM, a GI50 (RPMI-8226 leukemia) of 18.3 µM and a TGI (RPMI-8226 leukemia) greater than 100 µM. The GI50 (RXF 393 renal) was greater than 100 µM, the TGI (RXF 393 renal) was greater than 100 µM and the GI50 (SF-268 CNS) was 32.4 µM. It also gave a TGI (SF-268 CNS) greater than 100 µM, a GI50 (SF-295 CNS) of 21.2 µM and a TGI (SF-295 CNS) greater than 100 µM. It also gave a GI50 (SF-539 CNS) of 40.3 µM, a TGI (SF-539 CNS) greater than 100 µM and a GI50 (SK-MEL-2 melanoma) of 63.3 µM. It also gave a TGI (SK-MEL-2 melanoma) greater than 100 µM, a GI50 (SK-MEL-28 melanoma) of 71 µM and a TGI (SK-MEL-28 melanoma) greater than 100 µM. The GI50 (SK-MEL-5 melanoma) was 17.2 µM, the TGI (SK-MEL-5 melanoma) was 47.1 µM and the GI50 (SK-OV-3 ovarian) was 54.2 µM. The TGI (SK-OV-3 ovarian) was greater than 100 µM, the GI50 (SN12C renal) was 56.6 µM and the TGI (SN12C renal) was greater than 100 µM. For the same compound, the GI50 (SNB-19 CNS) was greater than 100 µM, the TGI (SNB-19 CNS) was greater than 100 µM and the GI50 (SNB-75 CNS) was greater than 100 µM. The TGI (SNB-75 CNS) was greater than 100 µM, the GI50 (SR leukemia) was 37.9 µM and the TGI (SR leukemia) was greater than 100 µM. For the same compound, the GI50 (SW-620 colon) was 28 µM, the TGI (SW-620 colon) was greater than 100 µM and the GI50 (T-47D breast) was 7.85 µM. The TGI (T-47D breast) was greater than 100 µM, the GI50 (TK-10 renal) was 45.5 µM and the TGI (TK-10 renal) was greater than 100 µM. It also gave a GI50 (U251 CNS) of 48.6 µM, a TGI (U251 CNS) greater than 100 µM and a GI50 (UACC-257 melanoma) of 39.9 µM. The TGI (UACC-257 melanoma) was greater than 100 µM, the GI50 (UACC-62 melanoma) was 28 µM and the TGI (UACC-62 melanoma) was greater than 100 µM. For the same compound, the GI50 (UO-31 renal) was 3.18 µM and the TGI (UO-31 renal) was greater than 100 µM.
